Data from patent US9795602B2, “Polycyclic-carbamoylpyridone compounds and their pharmaceutical use” (Gilead Sciences, Inc., priority 2014, dated 2017).
pEC50: −log10 of the molar value.

System: wild-type HIV-1
Assay: Antiviral assay in MT-2 cells, wild-type HIV-1
Type: cell-based
Settings: Human immunodeficiency virus 1, 120 h; MT2 cells, wild-type HIV-1, 5 days; read-out: wt
Method: For the antiviral assay utilizing MT-2 cells, 50 μL of 2× test concentration of 3-fold serially diluted compound in culture medium with 10% FBS was added to each well of a 96-well plate (9 concentrations) in triplicate. MT-2 cells were infected with wild-type or mutant variants of HIV-1 for 3 hours using a volume of viral inoculum determined to produce 90% cell killing. Fifty microliters of infected cell suspension in culture medium with 10% FBS (˜1.5×10^4 cells) was then added to each well containing 50 μL of serially diluted compound. The plates with HIV-infected cultures were then incubated at 37° C. for 5 days in the presence of the tested compounds. After 5 days of incubation, 100 μL of CellTiter-Glo™ Reagent (catalog # G7571, Promega Biosciences, Inc., Madison, Wis.) was added to each well. Cell lysis was carried out by incubating at room temperature for 10 min followed by a chemiluminescence read-out.
The chemiluminescence readout from the 10-point antiviral dose response was analyzed directly by curve fitting with equation (I) to determine the EC50.
where y=Cell Survival, M=maximum cell survival enabled by drug protection, H=baseline cell survival without drug protection, n=Hill coefficient of the antiviral dose response, m=Hill coefficient of the cytotoxicity dose response, and [I]=inhibitor concentration.
EC50 values (mean±standard deviation) were calculated from at least three independent experiments performed in triplicate. The fold-change in antiviral activity of tested compounds was calculated as a ratio of the mean EC50 for each mutant virus divided by the mean EC50 of the control WT virus.

Compound | pEC50
CCN1C(=O)c2c(O)c(=O)c(C(=O)NCc3ccc(F)c(Cl)c3F)cn2[C@H]2CCO[C@H]21 [Compound 25b] | 8.85
CCN1C(=O)c2c(O)c(=O)c(C(=O)NCc3ccc(F)c(Cl)c3F)cn2[C@H]2CCOC[C@H]21 [Compound 39] | 9.05
